# Entries after “also recorded” stand apart in the source; their conditions may differ.
# Columns and labels:
# [1] = In vivo time course and dose response of ERK activation in dorsal striatum; parameters: species or system mouse; details: mouse, in vivo, ip; 20 mg/kg i.p.; read-out: estimated half-life (of RB5 activity on pERK in brain) (converted)
# Procedure: (§1) Mice injected with RB5 were perfused at different time points, whereas scramble-injected mice were perfused after 1 hour. Immunohistochemical analysis was carried out against phospho-p44/p42 MAP kinase (Thr202/Tyr204). […] One-way ANOVA F5,29=9.137, p<0.0001. Bonferroni's post-hoc test, SCR vs RB5 1 h: p<0.001, SCR vs RB5 6 h: p<0.001. […] Immunohistochemical analysis was carried out against phospho-p44/p42 MAP kinase (Thr202/Tyr204). […] One-way ANOVA: F5,29=7.097, p<0.001. Bonferroni's post-hoc test, SCR vs RB5 20 mg/kg: p<0.05, SCR vs RB5 10 mg/kg: p<0.01. Data are expressed as Mean±SEM. c) RB5 brain levels measured with mass spectrometry at different hours after a single i.p. administration of 20 mg/kg. High levels of RB5 were detected up to 6 hrs (one-way ANOVA, F4,18=17.469, P<0.0001, Bonferroni's post-hoc, SCR vs RB5 1 h P<0.01, SCR vs RB5 3 h P<0.0001, SCR vs RB5 6 h P<0.05). […] White star P<0.0001, P<0.001, P<0.01, P<0.05.
# (§2) 1 h after CPP-RB5/CPP-SCR (20 mg/kg, i.p.) mice were anaesthetized and perfused via intracardiac infusion of ice-cold 4% PFA. Brains were rapidly extracted, post-fixed overnight and transferred to 25% buffered sucrose for 24 h. Coronal sections were cut at 30 μm thickness on a freezing microtome and stored in a cryoprotective solution at −20° C. until they were processed for immunohistochemistry. Free-floating sections were incubated with primary antibodies against anti-phospho-p44/42 MAP kinase (Thr202/Tyr204), anti-phospho-Elk-1 (Ser383), anti-phospho-Kv4.2 (Thr607)-R, anti-phospho-MSK-1, anti-phospho-MEK-1, c-Fos and Tyrosine Hydroxylase overnight at 4° C. Sections were then incubated with biotinylated goat anti-rabbit IgG (1:200, Vector Labs) for 2 h. Detection of the bound antibodies was carried out using a standard peroxidase-based method (ABC-kit, Vectastain, Vector Labs), followed by a DAB and H2O2 solution. Quantification of positive neurons were counted from striatum in 2-3 sections per mouse, bilaterally. Sample areas were visualized under a 20× objective in a Leica DM IRB microscope by a blind investigator to condition and counts per region were averaged across the sections using the ImageJ software.
# [2] = system: phospho-p44/p42 MAP kinase (Thr202/Tyr204); test: as above; parameters: species or system mouse; details: dorsal striatum
# Procedure: as §1, §2
# [3] = RB5 brain levels by HPLC-MS/MS after single i.p. administration; assay type: in vivo, mouse; details: single i.p. 20 mg/kg, mass spectrometry
# Procedure: Bioavailability of RB5 in the mouse brain was determined at different time intervals (1, 3, 6, 12 h) after a single i.p. administration of 20 mg/kg. RB5 was then quantified in mouse brain using HPLC-MS/MS. Brain samples were homogenized with 1:4 w/v of 50% acetonitrile, 5% TFA in water with an homogenizer ultra-turrax and then centrifuged at 13000 rpm for 10 min at 4° C. The supernatant was collected and centrifuged at 13000 rpm for 2 minutes at 4° C. The supernatant was then collected in ice, extracted using Sep-Pak cartridges C18, lyophilised and kept at 4° C. before HPLC-MS/MS analysis. Immediately before the analysis samples were suspended in 100 μL of 0.1% HCOOH in water/8% acetonitrile in auto-sampler vials.
# HPLC-MS/MS analysis was performed using a system consisting of an Agilent 1200 series HPLC system coupled with an Agilent 6410 Triple Quadruple mass spectrometer. Mass Hunter Workstation v. […] The quantification of mouse brain levels of RB5 and scramble peptides was carried out using an internal standard curve with peptide concentrations ranging from 0.1 to 4 ng per μl. […]
# Peptides were then detected on an Agilent 6410 QQQ mass spectrometer using the following parameters: positive ion mode, 5 kV capillary voltage, cone voltage 500 V, gas flow rate 8 L/min at 350° C., nebulizer gas pressure 40 PSI at 350° C., well time 75 msec and Q1 and Q3 set to unit resolution.
# MPTP treated mice = test: Subacute MPTP mouse model of Parkinson's Disease; assay type: in vivo; details: 4 days
# Procedure: Adult mice were treated with MPTP or vehicle (20 mg/kg i.p.) for 4 days. […] Two-way ANOVA Bonferroni post-hoc comparison *p<0.05**p<0.01.
# Two-way ANOVA Bonferroni post-hoc comparison *p<0.05**p<0.01
# We have assessed the neuroprotective effect of RB5 in the MPTP (1-methyl-4-phenyl-1,2,3,6-tetrahydropyridine) neurotoxin model of Parkinson's Disease (FIG. 6). Mice have been treated with MPTP or vehicle (20 mg/kg, i.p) for 4 days. RB5 or scramble peptide (20 mg/kg, i.p) was injected 1 h before MPTP/vehicle.
structure (smiles),measurement,setting,value
CSCC[C@H](NC(=O)[C@H](CCC(=O)O)NC(=O)[C@@H](NC(=O)[C@H](CCC(=O)O)NC(=O)CNC(=O)[C@@H]1CCCN1C(=O)[C@@H](NC(=O)CNC(=O)[C@@H]1CCCN1C(=O)CNC(=O)[C@@H](NC(=O)CNC(=O)[C@H](CCC(=O)O)NC(=O)[C@@H](NC(=O)[C@H](CCCNC(=N)N)NC(=O)[C@H](CCCNC(=N)N)NC(=O)[C@@H]1CCCN1C(=O)[C@H](CCC(=O)O)NC(=O)CNC(=O)CNC(=O)CNC(=O)CNC(=O)CNC(=O)[C@H](CCC(N)=O)NC(=O)[C@@H]1CCCN1C(=O)[C@@H]1CCCN1C(=O)[C@H](CCCNC(=N)N)NC(=O)[C@H](CCCNC(=N)N)NC(=O)[C@H](CCCNC(=N)N)NC(=O)[C@H](CCC(N)=O)NC(=O)[C@H](CCCNC(=N)N)NC(=O)[C@H](CCCNC(=N)N)NC(=O)[C@H](CCCCN)NC(=O)[C@H](CCCCN)NC(=O)[C@H](CCCNC(=N)N)NC(=O)CNC(C)=O)[C@@H](C)O)C(C)C)C(C)C)C(C)C)C(=O)N[C@H](C(=O)N[C@@H](CCCCN)C(=O)NCC(=O)N[C@@H](CCC(N)=O)C(=O)N1CCC[C@H]1C(=O)N[C@@H](Cc1ccccc1)C(=O)N[C@@H](CC(=O)O)C(=O)N[C@@H](C(=O)O)C(C)C)C(C)C [RB5],half-life,[1],9 h
same,time after injection at which phospho-ERK returned to basal levels,[2]; 20 mg/kg i.p.,12 h
same,time after injection up to which phospho-ERK levels / RB5 activity remained increased,[2]; 20 mg/kg i.p.,up to 6 h
same,pERK dose response,"[2]; different doses i.p., 1 hour after injection",both 20 and 10 mg/kg (i.p.) doses are able to elevate pERK; also recorded: dose-dependent manner
same,time up to which high RB5 brain levels were detected,[3],up to 6 h
same,TH loss in Substantia Nigra,MPTP treated mice; 20 mg/kg i.p. 1 h before MPTP 20 mg/kg,significant reduction of TH loss
same,"apoptotic cells (TUNEL, nigral neurones)",MPTP treated mice; 20 mg/kg i.p. 1 h before MPTP,significant reduction of apoptotic cells
same,"neurodegeneration (TH, TUNEL, cleaved caspase 3)",MPTP treated mice; 20 mg/kg i.p. 1 h before MPTP,Neurodegeneration was prevented
same,pre-apoptotic state (Cleaved Caspase-3),MPTP treated mice; 20 mg/kg i.p. 1 h before MPTP,significant reduction of the pre-apoptotic state

# Source: patent publication US11471502B2, “Neuroprotective peptide” (UNIVERSITY COLLEGE CARDIFF C[…], priority 2017, dated 2022)
